Laboratory results: PMC9977316, “The kidney drug transporter OAT1 regulates gut microbiome–dependent host metabolism” (JCI Insight, 2023)
“Also recorded” adds a separate entry of the source. Where a name gives a salt, the structure may show the parent alone.

Assays:
OAT1 [1] = target: T1, OAT1 (Mus musculus, UniProt Q8VC69); test: Serum metabolomics, effect of genotype (Oat1-KO versus WT), 2-way ANOVA; assay type: in vivo; conditions: for interaction between genotype and treatment on serum level: 2-way ANOVA, loss of Oat1 x microbiome depletion; for effect of genotype on serum level: statistical analysis of the serum metabolome
T1 construct: from tissue; host or cells: living mice (kidney proximal tubule); Oat1-KO versus WT
T1 sequence (Q8VC69 1-545): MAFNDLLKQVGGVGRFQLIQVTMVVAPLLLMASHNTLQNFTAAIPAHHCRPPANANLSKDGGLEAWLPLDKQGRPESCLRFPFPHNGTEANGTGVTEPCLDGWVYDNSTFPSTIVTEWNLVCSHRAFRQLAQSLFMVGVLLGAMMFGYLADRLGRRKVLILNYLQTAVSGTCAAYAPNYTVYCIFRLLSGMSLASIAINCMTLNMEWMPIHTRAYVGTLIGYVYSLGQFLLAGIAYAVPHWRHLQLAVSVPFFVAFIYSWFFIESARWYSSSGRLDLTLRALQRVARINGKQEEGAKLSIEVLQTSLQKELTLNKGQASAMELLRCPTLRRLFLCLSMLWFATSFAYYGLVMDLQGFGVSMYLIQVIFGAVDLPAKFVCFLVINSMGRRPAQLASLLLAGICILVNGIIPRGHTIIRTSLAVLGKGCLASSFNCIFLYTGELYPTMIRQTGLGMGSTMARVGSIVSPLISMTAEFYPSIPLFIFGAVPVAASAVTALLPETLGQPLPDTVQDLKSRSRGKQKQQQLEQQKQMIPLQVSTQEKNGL
Description: Adult male KO and WT mice were housed in a 12-hour light-dark cycle and allowed ad libitum access to food and water. Oat1-KO mice were generated and maintained as previously described ([49]). Feces were collected from mice weekly in sterile 2 mL centrifuge tubes, flash frozen, and stored at –80°C. Animals were sacrificed by CO2 inhalation, and blood samples were extracted from mice by cardiac puncture. Serum was extracted, and samples were flash frozen and stored at –80°C until further analysis.
Serum samples were shipped on dry ice to Metabolon Inc. for preparation and metabolomics. Per Metabolon Inc., proteins were removed from the serum and 5 fractions were generated for different mass spectrometry methods. […] Peaks were identified and associated with defined compounds based on retention time, mass/charge ratio, and MS/MS spectral data. Quantification of peaks was performed using AUC.
Scaled intensity for each metabolite was normalized to volume, and missing values were imputed with the lowest value for the compound. For all fold-change calculations, scaled intensities were averaged and compared with each other. Statistical comparisons were performed using the Python module, statsmodels (https://www.statsmodels.org/stable/index.html) and were made between groups by 2-way ANOVA following log transformation and FDR correction, with P < 0.05 being considered significant. Enrichment for each superpathway and subpathway was calculated using the number of total metabolites measured and the number of metabolites in each respective superpathway and subpathway, as previously described ([16]).

OAT1 [2] = conditions: cited from earlier work; for Decreased in urine of probenecid-treated humans / Elevated in plasma of probenecid-treated humans: before vs 5 hours after oral probenecid
OAT1 [3] = target: T2, OAT1 (Homo sapiens, UniProt Q4U2R8); test: In vitro OAT1 transport assay (inhibition of 6-carboxyfluorescein uptake); assay type: cell-based; design: host or cells: HEK (HEK293) cells stably overexpressing human OAT1; conditions: for In vitro cell–based transport assay: this work
T2 sequence (Q4U2R8 1-563): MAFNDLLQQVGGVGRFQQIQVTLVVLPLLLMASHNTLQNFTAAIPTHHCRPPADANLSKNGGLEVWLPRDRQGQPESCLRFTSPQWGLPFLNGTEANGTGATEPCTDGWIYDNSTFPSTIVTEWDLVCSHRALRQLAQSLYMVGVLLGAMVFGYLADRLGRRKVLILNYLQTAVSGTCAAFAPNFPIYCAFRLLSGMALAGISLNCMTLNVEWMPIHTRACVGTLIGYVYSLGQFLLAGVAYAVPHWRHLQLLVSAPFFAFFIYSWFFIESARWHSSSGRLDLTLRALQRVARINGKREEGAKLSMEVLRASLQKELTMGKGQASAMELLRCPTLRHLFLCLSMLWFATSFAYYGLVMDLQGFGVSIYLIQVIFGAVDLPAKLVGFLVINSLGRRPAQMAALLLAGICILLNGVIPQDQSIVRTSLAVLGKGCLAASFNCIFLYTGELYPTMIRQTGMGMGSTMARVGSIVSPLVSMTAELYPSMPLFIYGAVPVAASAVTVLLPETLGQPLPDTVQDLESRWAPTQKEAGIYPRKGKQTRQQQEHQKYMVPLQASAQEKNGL
Description: Human embryonic kidney (HEK) cells stably overexpressing human OAT1 (SOLVO Biotechnology) were used for in vitro inhibition assays. […] Prior to functional assays, cells were plated in 96-well plates and grown for 24 hours or until confluent in media without blasticidin. Metabolites were added at either 1 mM or 2 mM, and serial dilution was performed down all columns. A fixed concentration of 10 μM 6-carboxyfluorescein (6-CF) was introduced to each well for 10 minutes. Cells were rinsed 3 times in ice-cold PBS, and the fluorescence was measured using a fluorescence plate reader. IC50 values were calculated using GraphPad Prism 9. Controls were carried out using probenecid, an established inhibitor of OAT1 function.

[4] = direction of serum change by loss of Oat1 and by microbiome depletion

| Compound | Status (OAT1 [1]; [4]) | Decreased in urine of probenecid-treated humans (OAT1 [2]) | other results |
| --- | --- | --- | --- |
| 3-methoxycatechol sulfate (2) | Group 2 | ✓ | – |
| OC[C@H]1OC[C@H](O)[C@@H](O)[C@@H]1O [1,5-anhydroglucitol (1,5-AG)] | Group 1 | – | – |
| Cn1cncc1CC(O)C(=O)O (centres unmarked) [1-methyl-5-imidazolelactate] | Group 1 | – | – |
| O=C(O)Cc1cccc2cc[nH]c12 [1H-indole-7-acetic acid] | Group 2 | – | – |
| O=C(O)c1c(O)cccc1O [2,6-dihydroxybenzoic acid] | Group 2 | ✓ | Elevated in plasma of probenecid-treated humans (OAT1 [2]): ✓ |
| Cc1ccc(OS(=O)(=O)O)c(N)c1 [2-amino-p-cresol sulfate] | Group 2 | – | interaction between genotype and treatment on serum level (OAT1 [1]): impacted by the interaction between the variables |
| O=C(O)Cc1ccccc1O [2-hydroxyphenylacetate] | – | – | effect of genotype on serum level (OAT1 [1]): affected by genotype; IC50 (OAT1 [3]): 39.2 µM; In vitro cell–based transport assay (OAT1 [3]): × (this work) |
| CC(C)C(O)(CC(=O)O)C(=O)O (centres unmarked) [2-isopropylmalate] | Group 4 | – | Elevated in plasma of probenecid-treated humans (OAT1 [2]): ✓ |
| O=C(O)CCCC(=O)C(=O)O [2-oxoadipate] | Group 4 | ✓ | – |
| O=C(O)CCc1ccc(O)cc1 [3-(4-hydroxyphenyl)propionate] | Group 2 | – | – |
| O=S(=O)(O)Oc1c[nH]c2ccccc12 [3-indoxyl sulfate] | – | ✓ | Elevated in plasma of probenecid-treated humans (OAT1 [2]): ✓; plasma level in probenecid treated humans (OAT1 [2]): significantly elevated in the plasma |
| Cn1cncc1C[C@H](N)C(=O)O [3-methylhistidine] | Group 2 | – | – |
| O=C(O)CCc1ccccc1.O=C(O)CCc1ccccc1 [3-phenylpropionate (hydrocinnamate)] | Group 4 | – | – |
| C=CCc1ccc(OS(=O)(=O)O)cc1 [4-allylphenol sulfate] | Group 2 | ✓ | – |
| CCc1ccc(OS(=O)(=O)O)cc1 [4-ethylphenyl sulfate] | Group 2 | ✓ | urine level in probenecid treated humans (OAT1 [2]): significantly decreased in the urine |
| O=C(O)/C=C/c1ccc(O)cc1 [4-hydroxycinnamate] | – | – | effect of genotype on serum level (OAT1 [1]): not impacted by either variable; IC50 (OAT1 [3]): 13.3 µM; In vitro cell–based transport assay (OAT1 [3]): × (this work) |
| O=C(O)Cc1c[nH]c2ccc(O)cc12 [5-Hydroxyindoleacetate] | – | – | effect of genotype on serum level (OAT1 [1]): not impacted by either variable |
| CC(CCC[C@@H](C)[C@H]1CC[C@H]2[C@@H]3[C@H](O)CC4=CC(=O)CC[C@]4(C)[C@H]3CC[C@]12C)C(=O)O (some centres unmarked) [7-HOCA] | Group 3 | – | – |
| O=S(=O)(O)Oc1ccccc1O [catechol sulfate] | Group 2 | ✓ | – |
| O=C(O)/C=C/c1ccccc1 [cinnamate] | – | – | Status (OAT1 [1]; mouse, in vivo): Group 4 |
| COc1cc(CC(=O)O)ccc1OS(=O)(=O)O [homovanillate sulfate] | Group 2 | ✓ | – |
| O=S(=O)(O)Oc1ccc(O)cc1 [hydroquinone sulfate] | Group 2 | – | Elevated in plasma of probenecid-treated humans (OAT1 [2]): ✓ |
| O=C(O)CCc1c[nH]c2ccccc12 [indolepropionate] | – | – | IC50 (OAT1 [3]): 39.2 µM; In vitro cell–based transport assay (OAT1 [3]): × (this work) |
| docosahexaenoylcarnitine (C22:6)* | – | – | interaction between genotype and treatment on serum level (OAT1 [1]): impacted by the interaction between the variables |

Second part, led by results:

| Status (OAT1 [1]; [4]) | Compound | Decreased in urine of probenecid-treated humans (OAT1 [2]) | other results |
| --- | --- | --- | --- |
| Group 2 | COc1ccc(OS(=O)(=O)O)cc1 [4-methoxyphenol sulfate] | ✓ | Elevated in plasma of probenecid-treated humans (OAT1 [2]): ✓; plasma level in probenecid treated humans (OAT1 [2]): elevated in the plasma; urine level in probenecid treated humans (OAT1 [2]): decreased in the urine |
| Group 3 | CC(=O)NCCCC[C@H](NC(C)=O)C(=O)O [N2,N6-diacetyllysine] | ✓ | – |
| Group 3 | CC(=O)N[C@@H](CCCCN(C)C)C(=O)O [N2-acetyl,N6,N6-dimethyllysine] | ✓ | – |
| Group 2 | C[N+](C)(C)CCCCC(=O)[O-] [N,N,N-trimethyl-5-aminovalerate] | – | – |
| Group 1 | C[C@@H](C(=O)O)N(C)C [N,N-dimethylalanine] | – | – |
| Group 3 | CC(=O)N[C@@H](CCCCNC(N)=O)C(=O)O [N-acetylhomocitrulline] | ✓ | – |
| Group 4 | CC(=O)N[C@@H](CO)C(=O)O [N-acetylserine] | – | – |
| Group 4 | CN1CCC[C@H]1C(=O)O [N-methylproline] | – | – |
| Group 1 | O=C1O[C@H]([C@@H](O)CO)C(OS(=O)(=O)O)=C1O [ascorbic acid 3-sulfate*] | – | – |
| Group 2 | C[C@H](CCC(=O)O)[C@H]1CC[C@H]2[C@@H]3CC[C@@H]4C[C@H](O)CC[C@]4(C)[C@H]3C[C@H](O)[C@]12C [deoxycholate] | – | interaction between genotype and treatment on serum level (OAT1 [1]): impacted by the interaction between the variables; also recorded: affected by genotype-treatment interaction; IC50 (OAT1 [3]): 19.2 µM; In vitro cell–based transport assay (OAT1 [3]): × (this work) |
| Group 3 | [H]/N=C(/N)NCC(=O)O [guanidinoacetate] | – | – |
| Group 2 | O=C1Cc2ccccc2N1 [indolin-2-one] | ✓ | Elevated in plasma of probenecid-treated humans (OAT1 [2]): ✓ |
| Group 1 | CS(=O)(=O)CC[C@H](N)C(=O)O [methionine sulfone] | ✓ | – |
| Group 2 | Cc1ccc(OS(=O)(=O)O)cc1 [p-cresol sulfate] | ✓ | Elevated in plasma of probenecid-treated humans (OAT1 [2]): ✓; plasma level in probenecid treated humans (OAT1 [2]): significantly elevated in the plasma |
| Group 2 | O=C(O)CNC(=O)Cc1ccccc1 [phenylacetylglycine] | – | Elevated in plasma of probenecid-treated humans (OAT1 [2]): ✓ |
| Group 1 | O=C(O)CCC(=O)NCCS(=O)(=O)O [succinoyltaurine] | ✓ | – |
